Among the data in PubChem BioAssay (NCI) are TGI and GI50 values, retold here.

Test systems include HCT-116 colon; IGROV1 ovarian; KM12 colon; M14 melanoma; OVCAR-4 ovarian; SF-268 CNS; SK-MEL-2 melanoma; SK-MEL-5 melanoma; UACC-62 melanoma; UO-31 renal.
Holding throughout (assay): NCI-60 cell line screen, 48 h

Each structure is given as a SMILES string.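 Each compound was tested at five concentrations against cells in 96-well plates for 48 hours. Abbreviation: GI50, concentration required for 50% inhibition of growth. The concentration for full growth arrest is given as TGI.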 Bounds are passed on as bounds.

Take `Cc1nc(C(N)=S)sc1C(=O)C/C(=N/N)C(=O)Nc1cccc(Cl)c1C`: the TGI in the assay with HCT-116 colon, with IGROV1 ovarian, in the assay with KM12 colon, in the assay on M14 melanoma, with OVCAR-4 ovarian and in the assay with SF-268 CNS was above 100 µM in each case. Further, the TGI with SK-MEL-2 melanoma, with SK-MEL-5 melanoma, in the assay on UACC-62 melanoma and in the assay on UO-31 renal was above 100 µM in each case.
In the case of `C=C(C=O)CCCC(C)[C@@H]1CCC23CC12CCC1[C@@]2(C)CCC(OC(C)=O)C(C)(C)C2CC(OC2OC(COC(C)=O)C(O)C(O)C2O)[C@]13C` (stereo not given in full), the TGI was found to be 1.43 µM in the assay on HCT-116 colon; 7.9 µM in the assay on IGROV1 ovarian; 9.53 µM in the assay with KM12 colon; 4.57 µM in the assay on M14 melanoma; 11.1 µM in the assay on OVCAR-4 ovarian; 12.3 µM in the assay on SF-268 CNS. Besides, the TGI was found to be 13.9 µM with SK-MEL-2 melanoma, 11.3 µM in the assay on SK-MEL-5 melanoma, 3.49 µM with UACC-62 melanoma and 11 µM in the assay with UO-31 renal.
`C=C=C(C(=O)OC)S(=O)c1ccc([N+](=O)[O-])cc1[N+](=O)[O-]` (stereo not given): the TGI with HCT-116 colon is 50.3 µM; with IGROV1 ovarian, 97.5 µM; in the assay on KM12 colon it was above 72 µM; in the assay with M14 melanoma, above 69.5 µM; in the assay with OVCAR-4 ovarian it was 63.6 µM; in the assay on SF-268 CNS, above 74.6 µM. Further, the TGI in the assay on SK-MEL-2 melanoma was above 79.8 µM; with SK-MEL-5 melanoma, above 100 µM; in the assay with UACC-62 melanoma, above 71.4 µM; in the assay on UO-31 renal, 98.2 µM.
In the case of `c1nnc(NCNc2nncs2)s1`, the TGI in the assay with HCT-116 colon, in the assay on IGROV1 ovarian, with KM12 colon, in the assay on M14 melanoma, in the assay with OVCAR-4 ovarian and with SF-268 CNS was above 100 µM in each case. Further, the TGI in the assay on SK-MEL-2 melanoma, with SK-MEL-5 melanoma, in the assay with UACC-62 melanoma and in the assay with UO-31 renal was above 100 µM in each case.
For the molecule `COc1cc2nc(-c3ccc(C(F)(F)F)cc3)cc(OCCCN3CCCCC3)c2cc1OC`, the GI50 in the assay on HCT-116 colon was 0.429 µM; in the assay with IGROV1 ovarian it was 0.651 µM; in the assay on KM12 colon, 2.92 µM; in the assay with M14 melanoma, 0.327 µM; in the assay on OVCAR-4 ovarian, 2.91 µM; with SF-268 CNS, 3.76 µM. Further, the GI50 with SK-MEL-2 melanoma was 2.64 µM; in the assay on SK-MEL-5 melanoma, 0.325 µM; with UACC-62 melanoma, 1.82 µM; in the assay on UO-31 renal, 2 µM. For the same molecule, the TGI with HCT-116 colon was determined as 11.6 µM; in the assay with IGROV1 ovarian, 16 µM; in the assay on KM12 colon, 26.9 µM; in the assay on M14 melanoma, 1.26 µM; in the assay with OVCAR-4 ovarian, 31.3 µM; in the assay on SF-268 CNS it was 24.6 µM. Also, the TGI was found to be 8.89 µM in the assay with SK-MEL-2 melanoma, 1.2 µM with SK-MEL-5 melanoma, 6.29 µM in the assay on UACC-62 melanoma and 12.5 µM with UO-31 renal.
For `NC(=O)c1ccc(C2C3=C(CCCC3=O)OC3=C2C(=O)c2ccccc2C3=O)cc1` (stereo not given), the GI50 was 0.26 µM in the assay with HCT-116 colon; 0.641 µM with IGROV1 ovarian; 1.34 µM with KM12 colon; 0.609 µM in the assay on M14 melanoma; 0.228 µM with OVCAR-4 ovarian; 0.466 µM in the assay with SF-268 CNS. In addition, the GI50 is 0.576 µM with SK-MEL-2 melanoma, 0.493 µM in the assay with SK-MEL-5 melanoma, 0.217 µM with UACC-62 melanoma and 1.54 µM with UO-31 renal. The TGI in the assay with HCT-116 colon was determined as 0.76 µM; in the assay with IGROV1 ovarian it was 2.12 µM; in the assay on KM12 colon it was 4.52 µM; in the assay on M14 melanoma, 2.03 µM; with OVCAR-4 ovarian it was 0.95 µM; with SF-268 CNS it was 1.93 µM. Besides, the TGI in the assay with SK-MEL-2 melanoma amounted to 2.06 µM; with SK-MEL-5 melanoma, 1.73 µM; in the assay on UACC-62 melanoma, 0.52 µM; in the assay with UO-31 renal, 2.91 µM.
`Cc1cc(=O)oc2cc(O)c(CN(C)CC(=O)O)cc12`: the TGI with HCT-116 colon, with IGROV1 ovarian, in the assay on KM12 colon, in the assay with M14 melanoma, in the assay with OVCAR-4 ovarian and in the assay with SF-268 CNS was above 100 µM each time. Besides, the TGI in the assay on SK-MEL-2 melanoma, in the assay with SK-MEL-5 melanoma, in the assay with UACC-62 melanoma and in the assay on UO-31 renal was above 100 µM throughout.
Regarding `Cc1cc(-c2nnc3n2CCCCC3)c(C)n1-c1ccc(Cl)c(Cl)c1`, the GI50 in the assay with HCT-116 colon is 12.8 µM; in the assay with IGROV1 ovarian, 17.9 µM; in the assay with KM12 colon it was 16.6 µM; in the assay on M14 melanoma, 14.9 µM; in the assay with OVCAR-4 ovarian, 8.4 µM; in the assay on SF-268 CNS it was 17.8 µM. Also, the GI50 was 14.9 µM in the assay with SK-MEL-2 melanoma, 2.18 µM with SK-MEL-5 melanoma, 4.03 µM with UACC-62 melanoma and 12.6 µM with UO-31 renal. Also, the TGI was determined as 28.7 µM with HCT-116 colon; 42.7 µM in the assay with IGROV1 ovarian; 32 µM with KM12 colon; 33.5 µM in the assay with M14 melanoma; 57.5 µM in the assay on OVCAR-4 ovarian; 36.6 µM in the assay on SF-268 CNS. For the same molecule, the TGI in the assay on SK-MEL-2 melanoma worked out at 31 µM; with SK-MEL-5 melanoma it was 6.08 µM; in the assay with UACC-62 melanoma, 17 µM; with UO-31 renal it was 36.7 µM.
`Cc1c2ccc(N(C)c3ccnc(Nc4cccc(S(N)(=O)=O)c4)n3)cc2nn1C`: the GI50 in the assay with HCT-116 colon is 8.23 µM; in the assay on IGROV1 ovarian, 10.1 µM; with KM12 colon, 8.12 µM; with M14 melanoma it was 9.73 µM; in the assay on OVCAR-4 ovarian, 6.23 µM; in the assay with SF-268 CNS, 8.51 µM. Further, the GI50 was 7.06 µM with SK-MEL-2 melanoma, 6.01 µM in the assay on SK-MEL-5 melanoma, 8.38 µM in the assay with UACC-62 melanoma and 5.96 µM with UO-31 renal. For the same molecule, the TGI in the assay on HCT-116 colon, with IGROV1 ovarian, in the assay on KM12 colon, with M14 melanoma, in the assay with OVCAR-4 ovarian and with SF-268 CNS was above 25 µM throughout. Further, the TGI in the assay with SK-MEL-2 melanoma is 16.7 µM; in the assay with SK-MEL-5 melanoma, above 17.1 µM; in the assay with UACC-62 melanoma, above 25 µM; in the assay on UO-31 renal it was above 23.1 µM.
Take `OCC1OC(n2cnc3c(/C=C(/O)c4ccccc4)ncnc32)C(O)C1O` (stereo not given): the TGI in the assay on HCT-116 colon is above 100 µM; with IGROV1 ovarian it was above 100 µM; in the assay with KM12 colon, above 100 µM; with M14 melanoma it was above 100 µM; with OVCAR-4 ovarian it was above 88.1 µM; in the assay with SF-268 CNS, above 100 µM. The TGI was above 24.7 µM in the assay with SK-MEL-2 melanoma, 79.7 µM in the assay with SK-MEL-5 melanoma, above 100 µM with UACC-62 melanoma and above 35.7 µM with UO-31 renal.
